Series [1] in a line: Solubility of insulin, FDKP and insulin plus FDKP between pH 6.0 and pH 7.4 (Example 9). The format is physicochemical. Here is the method: A standard solution of insulin (using recombinant human insulin) was made in 0.05N aqueous HCl. An aliquot (1 mg) of the solution was transferred into 4 different Eppendorf tubes and 9 mg of solid Na2-FDKP was added into each tube. A milky suspension formed immediately. The pH was adjusted to the values between pH 6.0 and pH 7.4 using 0.1N aqueous NaOH. Samples of insulin alone were compared to FDKP alone and to the solution of insulin and FDKP. The insulin alone samples were all insoluble. […] All samples containing 9 mg/ml FDKP and 1 mg/ml insulin were soluble at all pH values.

The next series can be described thus: FDKP micelle formation. The format is physicochemical. The conditions noted are these: FIG. 3. How it is done: FIG. 3 is a graph depicting the concentration of FDKP for forming micelles in phosphate buffer at pH 7.4 above 0.03 mg/ml.
Without being restricted to any one mechanism for creating the ultra-fast insulin formulations, a diketopiperazine, for example FDKP, has effects as an absorption enhancer and permeation enhancer, a metal chelator, a surfactant, a bolaamphiphile, and an aggregation inhibitor, and promotes enhanced absorption through a combination of these effects, including enhancing the amount of monomer insulin in solution upon injection. For example, the fumaric acid charges on the FDKP may serve to charge-mask insulin positive charges, reducing the overall charge on the insulin, and making it more likely to be absorbed, especially when formulations have a pH of about 6.0 to about 7.2, as described herein.

Another series has as its system diabetic minipigs. In words: Glucose response after subcutaneous injection in diabetic minipigs (Example 8). The series is classed as in vivo, Yucatan minipigs. How it is done: Recombinant human insulin were prepared in ultra-fast acting subcutaneous injectable formulations in aqueous solutions containing FDKP at pH 6.5 and 7.4, as summarized in Table 6. All formulation preparation was conducted in a laminar flow hood and the final solutions were filtered through 0.2 micron filters. Both formulations were injected into the subcutaneous tissue of diabetic minipigs (Yucatan minipigs rendered diabetic by treatment with alloxan).
The glucose response from the pH 6.5 formulation compared to a subcutaneous injection of standard lispro insulin is shown in FIG. 1. […] Time to 50% glucose reduction from the formulation is 30 minutes, while that from standard lispro is 50 minutes.
The glucose response from the […] formulation compared to a subcutaneous injection of the ultra-fast acting pH 6.5 formulation, both containing FDKP, are shown in FIG. 2. […] The strong pH dependency of the absorption rate was not anticipated. While not wanting to be held to a specific mechanism for the rapid absorption, the lower pH solution appears to cause there to be less charge on the FDKP, which would make it more hydrophobic, and therefore more likely to bind tightly to the insulin molecule, thereby reducing the overall charge on insulin, causing there to be more monomers in solution, and enhancing the absorption by several mechanisms.

Read-outs that look alike come from different tables or passages of the source.

In the case of `O=C(O)/C=C/C(=O)NCCCCC1NC(=O)C(CCCCNC(=O)/C=C/C(=O)O)NC1=O` (centres unmarked) [FDKP, 2,5-diketo-3,6-di(4-fumarylaminobutyl)piperazine], the solubility result in series [1] (below pH 7.0) is recorded as “insoluble”; in series [1] (pH 6.0), “Insoluble”; in series [1] (pH 6.5) it was “Insoluble”; in series [1] (pH 7.0, listed as FDKP (9 mg/mL)), “Partial”; in series [1] (pH 7.0, listed as FDKP alone) it was “partially soluble”; in series [1] (pH 7.4, listed as FDKP (9 mg/mL)) it was “Soluble”. Moreover, the solubility result in series [1] (pH 7.4, listed as FDKP alone) is given as “soluble”. For the same molecule, the “concentration for forming micelles” value in the series “FDKP micelle formation” is no less than 62 µM.
“Insulin (1 mg/mL): Recombinant human insulin, 1 mg/mL, without FDKP [reference compound]”: the solubility result in series [1] is on record as “insoluble”; in series [1] (pH 6), “insoluble”; in series [1] (pH 6.5) it was “Insoluble”; in series [1] (pH 7), “Insoluble”; in series [1] (pH 7.4) it was “Insoluble”.
insulin lispro [standard lispro]: the “Time to 50% glucose reduction” value with diabetic minipigs came to 50 min.

(Values after patent US20220354782A1, “SUBCUTANEOUSLY INJECTABLE INSULIN AND GLUCAGON FORMULATIONS AND METHODS OF ADMINISTRATION” (CASS PHARMACEUTICALS, INC., priority 2019, published 2022).)
